Measurements as given in patent US20090144861A1, “Fungicides and Bioregulatory Mixtures” (BASF Aktiengesellschaft, priority 2005, published 2009).

Experiments:
Puccinia recondita = assay: Curative activity against brown rust of wheat (Puccrt K1); assay type: in vivo, Puccinia recondita on wheat seedlings cultivar Kanzler; details: sprayed 1 day after inoculation, assessed after 7 days
Description: The active compounds were prepared separately or jointly as a stock solution with 25 mg of active compound which was made up to 10 ml using a mixture of acetone and/or DMSO and the emulsifier Uniperol® EL (wetting agent having emulsifying and dispersing action based on ethoxylated alkylphenols) in a volume ratio of solvent/emulsifier of 99 to 1. The mixture was then made up to 100 ml with water. This stock solution was diluted with the solvent/emulsifier/water mixture described to the concentration of active compounds stated below. […] The expected efficacies of mixtures of active compounds were determined using Colby's formula (Colby, S. R. “Calculating synergistic and antagonistic responses of herbicide combinations”, Weeds, 15, pp. 20-22, 1967) and compared with the observed efficacies. E=x+y−x×y/100 Use Example 1—Curative activity against brown rust of wheat caused by Puccinia recondita (Puccrt K1) Leaves of potted wheat seedlings of the cultivar “Kanzler” were inoculated with a spore suspension of brown rust (Puccinia recondita). The pots were then placed in a chamber with high atmospheric humidity (90 to 95%) at 20 to 22° C. for 24 hours. During this time, the spores germinated and the germ tubes penetrated into the leaf tissue. The next day, the infected plants were sprayed to run off point with the active compound solution described above at the active compound concentration stated below. […] The extent of the rust fungus development on the leaves was then determined. The visually determined values for the percentage of infected leaf area were initially converted into a mean value and then converted into efficacies in % of the untreated control. […] The expected efficacies for active compound combinations were determined using Colby's formula (Colby, S. R. “Calculating synergistic and antagonistic responses of herbicide Combinations”, Weeds, 15, pp. 20-22, 1967) and compared to the observed efficacies. […]

[1] = tested on: Erysiphe [syn. Blumeria] graminis forma specialis. tritici; assay: Activity against mildew of wheat (Erysgt P1); assay type: in vivo, Erysiphe graminis f. sp. tritici on wheat seedlings; details: sprayed 24 hours before inoculation, assessed after 7 days
Description: The active compounds were prepared separately or jointly as a stock solution with 25 mg of active compound which was made up to 10 ml using a mixture of acetone and/or DMSO and the emulsifier Uniperol® EL (wetting agent having emulsifying and dispersing action based on ethoxylated alkylphenols) in a volume ratio of solvent/emulsifier of 99 to 1. The mixture was then made up to 100 ml with water. This stock solution was diluted with the solvent/emulsifier/water mixture described to the concentration of active compounds stated below.
The visually determined percentages of infected leaf areas or the measured elongation were converted into efficacies in % of the untreated control:
The efficacy (E) is calculated as follows using Abbot's formula: […]
The expected efficacies of mixtures of active compounds were determined using Colby's formula (Colby, S. R. “Calculating synergistic and antagonistic responses of herbicide combinations”, Weeds, 15, pp. 20-22, 1967) and compared with the observed efficacies.
Use Example 2—Activity against mildew of wheat caused by Erysiphe [syn. Blumeria] graminis forma specialis. tritici (Erysgt P1)
Leaves of potted wheat seedlings were sprayed to run off point with an aqueous suspension having the active compound concentrations stated below. The suspension or emulsion had been prepared as described above. 24 hours after the spray coating had dried on, the plants were dusted with spores of mildew of wheat (Erysiphe [syn. Blumeria] graminis forma specialis. tritici). The test plants were then placed in a greenhouse at temperatures between 20 and 24° C. and at 60 to 90% relative atmospheric humidity. After 7 days, the extent of the mildew development was determined visually in % infection of the entire leaf area.
The visually determined values for the percentage of infected leaf area were initially converted into a mean value and then converted into efficacies in % of the untreated control. An efficacy of 0 means the same degree of infection as in the untreated control, an efficacy of 100 means 0% infection. The expected efficacies for active compound combinations were determined using Colby's formula (Colby, S. R. “Calculating synergistic and antagonistic responses of herbicide Combinations”, Weeds, 15, pp. 20-22, 1967) and compared to the observed efficacies.

[2] = Conc. 1 mg/ml, efficacy in % of untreated control

Fc1ccc(C2(Cn3cncn3)OC2c2ccccc2Cl)cc1 (stereo not shown) [Epoxiconazole, epoxiconazole]
Observed activity (Puccinia recondita; Conc. 0.25 mg/ml, efficacy in % of untreated control): 11% | Observed activity ([1]; Conc. 0.25 mg/ml): 0% | Observed activity [1, 2]: 33%

CCC(=O)C1=C([O-])CC(C(=O)[O-])CC1=O.[Ca+2] (stereo not shown) [Prohexadione-Ca, prohexadione-calcium]
Observed activity (Puccinia recondita; Conc. 0.06 mg/ml): 0% | Observed activity (Puccinia recondita; Conc. 1 mg/ml): 0% | Observed activity ([1]; Conc. 0.25 mg/ml): 0% | Observed activity [1, 2]: 0%
